Test results from ChEMBL document CHEMBL1201862, “PubChem BioAssay data set” (2004).
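Step 1: Grow cells in 96-well plates. Step 2: Expose to compound for 48 hours at 5 concentrations. Step 3: Interpolate endpoints linearly; if unreached, use highest concentration. The concentration for 50% growth inhibition is given as GI50.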 The source made the active and inactive calls. Rule as the data show it: active = GI50 up to about 1.1 µM and inactive = higher.

How the values were obtained:
Assay in all cases: NCI-60 cell line screen, 48 h
MOLT-4 = test system: MOLT-4
RXF 393 = test system: RXF 393
SK-MEL-2 = test system: SK-MEL-2
NCI-H23 = test system: NCI-H23
A498 = test system: A498
MDA-MB-435 = test system: MDA-MB-435
Hs-578T = test system: Hs-578T
SK-OV-3 = test system: SK-OV-3
SK-MEL-28 = test system: SK-MEL-28
KM12 = test system: KM12
SK-MEL-5 = test system: SK-MEL-5
IGROV-1 = test system: IGROV-1
SF-295 = test system: SF-295
HCT-116 = test system: HCT-116
CAKI-1 = test system: CAKI-1
SW-620 = test system: SW-620
HT-29 = test system: HT-29
M14 = test system: M14
SR = test system: SR
HCT-15 = test system: HCT-15
A549 = test system: A549
NCI-H226 = test system: NCI-H226
U-251 = test system: U-251
OVCAR-3 = test system: OVCAR-3
UACC-257 = test system: UACC-257
MDA-MB-231 = test system: MDA-MB-231
TK-10 = test system: TK-10
MCF7 = test system: MCF7
DU-145 = test system: DU-145
NCI-H522 = test system: NCI-H522
786-0 = test system: 786-0
NCI-H460 = test system: NCI-H460
HOP-62 = test system: HOP-62
SF-539 = test system: SF-539
NCI/ADR-RES = test system: NCI/ADR-RES
PC-3 = test system: PC-3
OVCAR-5 = test system: OVCAR-5
SF-268 = test system: SF-268
SNB-19 = test system: SNB-19
SN12C = test system: SN12C
HL-60 = test system: HL-60
COLO 205 = test system: COLO 205
RPMI-8226 = test system: RPMI-8226
SNB-75 = test system: SNB-75
BT-549 = test system: BT-549
HOP-92 = test system: HOP-92
UO-31 = test system: UO-31
EKVX = test system: EKVX
MDA-N = test system: MDA-N
OVCAR-8 = test system: OVCAR-8
T47D = test system: T47D
ACHN = test system: ACHN
LOX IMVI = test system: LOX IMVI
UACC-62 = test system: UACC-62
K562 = test system: K562
Malme-3M = test system: Malme-3M
OVCAR-4 = test system: OVCAR-4
CCRF-CEM = test system: CCRF-CEM

Measured: GI50

COc1ccc(C(=O)O[C@@H]2CCN3CC[C@H](C)[C@H]23)cc1
inactive: MOLT-4 > 100 µM | RXF 393 45.9 µM | SK-MEL-2 > 100 µM | NCI-H23 > 100 µM | A498 > 100 µM | MDA-MB-435 > 100 µM | Hs-578T > 100 µM | SK-OV-3 > 100 µM | SK-MEL-28 > 100 µM | KM12 > 100 µM | SK-MEL-5 > 100 µM | IGROV-1 > 100 µM | SF-295 > 100 µM | HCT-116 > 100 µM | CAKI-1 > 100 µM | SW-620 > 100 µM | HT-29 > 100 µM | M14 > 100 µM | SR > 100 µM | A549 > 100 µM | NCI-H226 > 100 µM | U-251 > 100 µM | OVCAR-3 > 100 µM | UACC-257 > 100 µM | MDA-MB-231 > 100 µM | TK-10 > 100 µM | MCF7 > 100 µM | DU-145 > 100 µM | NCI-H522 > 100 µM | 786-0 > 100 µM | NCI-H460 > 100 µM | HOP-62 > 100 µM | SF-539 > 100 µM | NCI/ADR-RES > 100 µM | PC-3 > 100 µM | OVCAR-5 > 100 µM | SF-268 > 100 µM | SNB-19 > 100 µM | SN12C > 100 µM | HL-60 > 100 µM | COLO 205 > 100 µM | RPMI-8226 > 100 µM | SNB-75 > 100 µM | BT-549 > 100 µM | HOP-92 > 100 µM | UO-31 58.1 µM | EKVX > 100 µM | MDA-N > 100 µM | OVCAR-8 > 100 µM | T47D > 100 µM | ACHN > 100 µM | LOX IMVI > 100 µM | UACC-62 > 100 µM
> 100 µM: HCT-15

COc1cccc(N2C(=O)CS(=O)(=O)C2c2cccc(Oc3ccccc3)c2)c1 (stereo not given)
inactive: MOLT-4 21.3 µM | RXF 393 16.5 µM | SK-MEL-2 14.2 µM | NCI-H23 23.4 µM | A498 10.1 µM | MDA-MB-435 3.56 µM | Hs-578T 21.8 µM | SK-OV-3 38 µM | SK-MEL-28 34 µM | KM12 7.67 µM | SK-MEL-5 7.11 µM | SF-295 16 µM | HCT-116 11.1 µM | CAKI-1 26.1 µM | SW-620 15.6 µM | HT-29 13.1 µM | M14 15.4 µM | SR 3.13 µM | A549 26.7 µM | NCI-H226 19.1 µM | U-251 16.7 µM | OVCAR-3 19.5 µM | K562 3.6 µM | Malme-3M 15.9 µM | UACC-257 15.3 µM | MDA-MB-231 30.4 µM | TK-10 16.5 µM | MCF7 3.04 µM | DU-145 38.5 µM | NCI-H522 6.53 µM | 786-0 16.9 µM | NCI-H460 13.6 µM | HOP-62 25.2 µM | SF-539 15.1 µM | NCI/ADR-RES 9.42 µM | OVCAR-4 28.6 µM | PC-3 9.98 µM | OVCAR-5 34 µM | SF-268 24.4 µM | SNB-19 27.1 µM | SN12C 17.6 µM | HL-60 11 µM | COLO 205 6 µM | SNB-75 15.6 µM | BT-549 20.1 µM | HOP-92 12.7 µM | UO-31 34.4 µM | EKVX 17 µM | MDA-N 2.38 µM | OVCAR-8 21.6 µM | CCRF-CEM 26.9 µM | T47D 19.1 µM | ACHN 20.1 µM | LOX IMVI 17.1 µM | UACC-62 6.1 µM
5.27 µM: HCT-15
